Counter-ions that a name gives are not always drawn.
Key:
L929 = assay: Cytotoxicity against mouse L929 cells assessed as inhibition of cell growth after 72 hrs by MTT assay; type: cell-based; settings: L929, 72 h
A549 [1] = assay: Antiproliferative activity against human A549 cells assessed as inhibition of cell growth after 72 hrs by sulforhodamine B assay; type: functional, cell-based; settings: A549, 72 h
HeLa [2] = assay: Antiproliferative activity against human HeLa cells assessed as inhibition of cell growth after 72 hrs by sulforhodamine B assay; type: functional, cell-based
MCF7 [3] = assay: Antiproliferative activity against human MCF7 cells assessed as inhibition of cell growth after 72 hrs by sulforhodamine B assay; type: functional, cell-based; settings: MCF7, 72 h
HCT-116 [4] = assay: Antiproliferative activity against human HCT116 cells assessed as inhibition of cell growth after 72 hrs by sulforhodamine B assay; type: functional, cell-based; settings: HCT-116, 72 h
HepG2 [5] = assay: Antiproliferative activity against human HepG2 cells assessed as inhibition of cell growth after 72 hrs by sulforhodamine B assay; type: functional, cell-based; settings: HepG2, 72 h
NCI-H1975 [6] = assay: Antiproliferative activity against human NCI-H1975 cells assessed as inhibition of cell growth after 72 hrs by sulforhodamine B assay; type: functional, cell-based; settings: NCI-H1975, 72 h
HL-60 [7] = assay: Antiproliferative activity against human HL60 cells assessed as inhibition of cell growth after 72 hrs by MTT assay; type: functional, cell-based; settings: HL-60, 72 h
K562 [8] = assay: Antiproliferative activity against human K562 cells assessed as inhibition of cell growth after 72 hrs by MTT assay; type: functional, cell-based; settings: K562, 72 h
LS180 [9] = assay: Antiproliferative activity against human LS180 cells assessed as inhibition of cell growth after 72 hrs by sulforhodamine B assay; type: functional, cell-based; settings: LS180, 72 h
SW480 [10] = assay: Antiproliferative activity against human SW480 cells assessed as inhibition of cell growth after 72 hrs by sulforhodamine B assay; type: functional, cell-based; settings: SW480, 72 h
HT-29 [11] = assay: Antiproliferative activity against human HT-29 cells assessed as inhibition of cell growth after 72 hrs by sulforhodamine B assay; type: functional, cell-based; settings: HT-29, 72 h
PC-3 [12] = assay: Antiproliferative activity against human PC3 cells assessed as inhibition of cell growth after 72 hrs by sulforhodamine B assay; type: functional, cell-based; settings: PC-3, 72 h
BXPC-3 [13] = assay: Antiproliferative activity against human BxPC3 cells assessed as inhibition of cell growth after 72 hrs by sulforhodamine B assay; type: functional, cell-based; settings: BXPC-3, 72 h
PANC-1 [14] = assay: Antiproliferative activity against human PANC1 cells assessed as inhibition of cell growth after 72 hrs by sulforhodamine B assay; type: functional, cell-based; settings: PANC-1, 72 h
HCT-116 [15] = assay: Antitumor activity against human HCT116 cells xenografted in BALB/c nu/nu mouse assessed as tumor growth inhibition at 5 mg/kg administered peritoneally once daily for 14 days measured 24 hrs post last dose relative to control; type: functional; settings: read-out: TGI
HCT-116 [16] = assay: Antitumor activity against human HCT116 cells xenografted in BALB/c nu/nu mouse assessed as tumor growth inhibition at 10 mg/kg administered peritoneally once daily for 14 days measured 24 hrs post last dose relative to control; type: functional; settings: read-out: TGI
HCT-116 [17] = assay: Antitumor activity against human HCT116 cells xenografted in BALB/c nu/nu mouse assessed as tumor growth inhibition at 20 mg/kg administered peritoneally once daily for 14 days measured 24 hrs post last dose relative to control; type: functional; settings: read-out: TGI
Mus musculus [18] = assay: Toxicity in BALB/c nu/nu mouse xenografted with human HCT116 cells assessed as spleen index at 5 mg/kg administered peritoneally once daily for 14 days measured 24 hrs post last dose (reference value: 0.41 +/- 0.08%); type: organism-based; settings: in vivo, ip
Mus musculus [19] = assay: Toxicity in BALB/c nu/nu mouse xenografted with human HCT116 cells assessed as spleen index at 10 mg/kg administered peritoneally once daily for 14 days measured 24 hrs post last dose (reference value: 0.41 +/- 0.08%); type: organism-based; settings: in vivo, ip
Mus musculus [20] = assay: Toxicity in BALB/c nu/nu mouse xenografted with human HCT116 cells assessed as spleen index at 20 mg/kg administered peritoneally once daily for 14 days measured 24 hrs post last dose (reference value: 0.41 +/- 0.08%); type: organism-based; settings: in vivo, ip
HCT-116 [21] = assay: Down regulation of HSP90 expression in human HCT116 cells after 48 hrs by Western blot analysis; type: functional, cell-based
HCT-116 [22] = assay: Down regulation of STAT3 expression in human HCT116 cells after 48 hrs by Western blot analysis; type: functional, cell-based
HCT-116 [23] = assay: Down regulation of phosphorylated STAT3 expression in human HCT116 cells after 48 hrs by Western blot analysis; type: functional, cell-based
HCT-116 [24] = assay: Down regulation of AKT expression in human HCT116 cells after 48 hrs by Western blot analysis; type: functional, cell-based
HCT-116 [25] = assay: Down regulation of Raf1 expression in human HCT116 cells after 48 hrs by Western blot analysis; type: functional, cell-based
HCT-116 [26] = assay: Down regulation of ERK1/2 expression in human HCT116 cells after 48 hrs by Western blot analysis; type: functional, cell-based
HCT-116 [27] = assay: Down regulation of survivin expression in human HCT116 cells after 48 hrs by Western blot analysis; type: functional, cell-based
A549 [28] = assay: Antiproliferative activity against human A549 cells assessed as inhibition of cell growth at 1 uM after 72 hrs by sulforhodamine B assay relative to control; type: functional; settings: A549, 72 h
HeLa [29] = assay: Antiproliferative activity against human HeLa cells assessed as inhibition of cell growth at 1 uM after 72 hrs by sulforhodamine B assay relative to control; type: functional
MCF7 [30] = assay: Antiproliferative activity against human MCF7 cells assessed as inhibition of cell growth at 1 uM after 72 hrs by sulforhodamine B assay relative to control; type: functional; settings: MCF7, 72 h
HCT-116 [31] = assay: Antiproliferative activity against human HCT116 cells assessed as inhibition of cell growth at 1 uM after 72 hrs by sulforhodamine B assay relative to control; type: functional; settings: HCT-116, 72 h
HepG2 [32] = assay: Antiproliferative activity against human HepG2 cells assessed as inhibition of cell growth at 1 uM after 72 hrs by sulforhodamine B assay relative to control; type: functional; settings: HepG2, 72 h
NCI-H1975 [33] = assay: Antiproliferative activity against human NCI-H1975 cells assessed as inhibition of cell growth at 1 uM after 72 hrs by sulforhodamine B assay relative to control; type: functional; settings: NCI-H1975, 72 h
HL-60 [34] = assay: Antiproliferative activity against human HL60 cells assessed as inhibition of cell growth at 1 uM after 72 hrs by MTT assay relative to control; type: functional; settings: HL-60, 72 h
K562 [35] = assay: Antiproliferative activity against human K562 cells assessed as inhibition of cell growth at 1 uM after 72 hrs by MTT assay relative to control; type: functional; settings: K562, 72 h
LS180 [36] = assay: Antiproliferative activity against human LS180 cells assessed as inhibition of cell growth at 1 uM after 72 hrs by sulforhodamine B assay relative to control; type: functional; settings: LS180, 72 h
SW480 [37] = assay: Antiproliferative activity against human SW480 cells assessed as inhibition of cell growth at 1 uM after 72 hrs by sulforhodamine B assay relative to control; type: functional; settings: SW480, 72 h
HT-29 [38] = assay: Antiproliferative activity against human HT-29 cells assessed as inhibition of cell growth at 1 uM after 72 hrs by sulforhodamine B assay relative to control; type: functional; settings: HT-29, 72 h
PC-3 [39] = assay: Antiproliferative activity against human PC3 cells assessed as inhibition of cell growth at 1 uM after 72 hrs by sulforhodamine B assay relative to control; type: functional; settings: PC-3, 72 h
BXPC-3 [40] = assay: Antiproliferative activity against human BxPC3 cells assessed as inhibition of cell growth at 1 uM after 72 hrs by sulforhodamine B assay relative to control; type: functional; settings: BXPC-3, 72 h
PANC-1 [41] = assay: Antiproliferative activity against human PANC1 cells assessed as inhibition of cell growth at 1 uM after 72 hrs by sulforhodamine B assay relative to control; type: functional; settings: PANC-1, 72 h

CCCCCC[C@@H](C)C[C@@H](C)/C=C/C(=O)N[C@H]1C[C@@]2(O[C@H]1O)[C@@H]1O[C@@H]1[C@](O)(CC(C)=O)[C@@H]1O[C@@H]12
IC50 (L929): 3.8 µM
IC50 (A549 [1]): 10.9 µM
IC50 (HeLa [2]): 5.09 µM
IC50 (MCF7 [3]): 3.73 µM
IC50 (HCT-116 [4]): 1.91 µM
IC50 (HepG2 [5]): 5.21 µM
IC50 (NCI-H1975 [6]): 3.75 µM
IC50 (HL-60 [7]): 4.55 µM
IC50 (K562 [8]): 4.2 µM
IC50 (LS180 [9]): 17.4 µM
IC50 (SW480 [10]): 4.64 µM
IC50 (HT-29 [11]): 8.4 µM
IC50 (PC-3 [12]): 8.7 µM
IC50 (BXPC-3 [13]): 5.96 µM
IC50 (PANC-1 [14]): 4.04 µM
inhibition in vivo at 5 mg/kg (HCT-116 [15]): 51.6%
inhibition in vivo at 10 mg/kg (HCT-116 [16]): 37.8%
inhibition in vivo at 20 mg/kg (HCT-116 [17]): 37.9%
Activity_index (Mus musculus [18]): 0.95
Activity_index (Mus musculus [19]): 0.37
Activity_index (Mus musculus [20]): 0.48
Activity (HCT-116 [21]): Dose-dependent effect
Activity (HCT-116 [22]): Dose-dependent effect
Activity (HCT-116 [23]): Dose-dependent effect
Activity (HCT-116 [24]): Dose-dependent effect
Activity (HCT-116 [25]): Dose-dependent effect
Activity (HCT-116 [26]): Dose-dependent effect
Activity (HCT-116 [27]): Dose-dependent effect

COc1cccc2c1C(=O)c1c(O)c3c(c(O)c1C2=O)C[C@@](O)(C(=O)CO)C[C@@H]3O[C@H]1C[C@H](N)[C@H](O)[C@H](C)O1 [DOXORUBICIN HYDROCHLORIDE]
inhibition at 1 µM (A549 [28]): 70 to 98%
inhibition at 1 µM (HeLa [29]): 70 to 98%
inhibition at 1 µM (MCF7 [30]): 70 to 98%
inhibition at 1 µM (HCT-116 [31]): 70 to 98%
inhibition at 1 µM (HepG2 [32]): 70 to 98%
inhibition at 1 µM (NCI-H1975 [33]): 70 to 98%
inhibition at 1 µM (HL-60 [34]): 70 to 98%
inhibition at 1 µM (K562 [35]): 70 to 98%
inhibition at 1 µM (LS180 [36]): 70 to 98%
inhibition at 1 µM (SW480 [37]): 70 to 98%
inhibition at 1 µM (HT-29 [38]): 70 to 98%
inhibition at 1 µM (PC-3 [39]): 70 to 98%
inhibition at 1 µM (BXPC-3 [40]): 70 to 98%
inhibition at 1 µM (PANC-1 [41]): 70 to 98%

— ChEMBL document CHEMBL4265942, “Four new antitumor metabolites isolated from a mutant 3-f-31 strain derived from Penicillium purpurogenum G59” (Eur J Med Chem, 2018)
